Laboratory results: article PMC7933985 (The Journal of General Physiology, 2021)
Positions count from the first letter of the chain named. Where two headings read alike, the source gives them in different places. Blank lines part the entries; values can stand above or below the compound they belong to.

Columns and labels:
[1] = target: T1, MEC-4d (Caenorhabditis elegans, UniProt P24612, A713T); assay: Two-electrode voltage clamp of oocytes coexpressing MEC-2 and MEC-4d; format: cell-based, C. elegans; settings: for effect on MEC-4d current: 30 µM
T1 sequence (P24612 1-768 A713T): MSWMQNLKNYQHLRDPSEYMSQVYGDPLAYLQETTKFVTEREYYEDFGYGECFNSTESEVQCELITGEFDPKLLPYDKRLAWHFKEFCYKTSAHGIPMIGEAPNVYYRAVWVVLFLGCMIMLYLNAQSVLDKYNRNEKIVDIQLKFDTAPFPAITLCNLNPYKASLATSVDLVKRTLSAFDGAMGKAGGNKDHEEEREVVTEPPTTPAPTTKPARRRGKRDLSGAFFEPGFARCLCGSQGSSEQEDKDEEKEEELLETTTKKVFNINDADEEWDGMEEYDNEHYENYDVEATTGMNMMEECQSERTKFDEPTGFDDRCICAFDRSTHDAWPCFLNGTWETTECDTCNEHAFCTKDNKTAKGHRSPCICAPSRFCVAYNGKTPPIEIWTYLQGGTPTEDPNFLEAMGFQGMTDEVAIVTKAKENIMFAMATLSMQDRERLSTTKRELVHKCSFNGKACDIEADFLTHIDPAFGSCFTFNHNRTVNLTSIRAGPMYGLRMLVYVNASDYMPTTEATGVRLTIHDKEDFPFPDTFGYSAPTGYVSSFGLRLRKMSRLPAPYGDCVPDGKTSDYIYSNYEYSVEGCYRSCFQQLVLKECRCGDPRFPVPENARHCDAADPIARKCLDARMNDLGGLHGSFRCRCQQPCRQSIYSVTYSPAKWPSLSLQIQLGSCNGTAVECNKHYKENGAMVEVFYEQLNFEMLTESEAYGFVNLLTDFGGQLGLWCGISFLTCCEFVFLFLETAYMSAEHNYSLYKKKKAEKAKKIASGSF

[2] = target: T2, MEC-2 alone (Caenorhabditis elegans, UniProt Q27433); assay: Two-electrode voltage clamp of oocytes expressing MEC-2 alone; format: cell-based, C. elegans; settings: 300 µM amiloride, −85 mV
T2 sequence (Q27433 1-481): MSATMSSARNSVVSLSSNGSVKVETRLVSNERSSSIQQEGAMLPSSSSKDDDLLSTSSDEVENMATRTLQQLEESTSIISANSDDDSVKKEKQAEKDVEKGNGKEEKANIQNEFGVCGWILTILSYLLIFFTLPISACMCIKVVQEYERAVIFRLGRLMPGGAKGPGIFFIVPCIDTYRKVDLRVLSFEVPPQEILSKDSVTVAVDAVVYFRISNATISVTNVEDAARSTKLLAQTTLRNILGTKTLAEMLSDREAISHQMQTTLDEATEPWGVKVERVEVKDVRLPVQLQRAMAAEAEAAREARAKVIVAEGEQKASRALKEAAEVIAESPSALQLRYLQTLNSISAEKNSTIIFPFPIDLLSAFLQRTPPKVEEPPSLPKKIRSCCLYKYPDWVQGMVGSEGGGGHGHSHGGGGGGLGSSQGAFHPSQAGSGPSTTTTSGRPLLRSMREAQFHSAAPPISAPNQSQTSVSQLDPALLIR

[3] = test system: DEGT-1d; assay: Two-electrode voltage clamp of oocytes coexpressing MEC-2 and DEGT-1d; format: cell-based, C. elegans; settings: for ΔIdrug, change in current compared with uninjected oocytes: −85 mV, coexpressed with MEC-2; for effect on DEGT-1d current: 30 µM
[4] = target: T3, UNC-8d (Caenorhabditis elegans, UniProt Q21974, G387E); assay: Two-electrode voltage clamp of oocytes coexpressing MEC-2 and UNC-8d; format: cell-based, C. elegans; settings: for effect on UNC-8d current: 30 µM; for IC50: control saline (divalent-containing solution)
T3 sequence (Q21974 1-737 isoform Q21974-4 G347E): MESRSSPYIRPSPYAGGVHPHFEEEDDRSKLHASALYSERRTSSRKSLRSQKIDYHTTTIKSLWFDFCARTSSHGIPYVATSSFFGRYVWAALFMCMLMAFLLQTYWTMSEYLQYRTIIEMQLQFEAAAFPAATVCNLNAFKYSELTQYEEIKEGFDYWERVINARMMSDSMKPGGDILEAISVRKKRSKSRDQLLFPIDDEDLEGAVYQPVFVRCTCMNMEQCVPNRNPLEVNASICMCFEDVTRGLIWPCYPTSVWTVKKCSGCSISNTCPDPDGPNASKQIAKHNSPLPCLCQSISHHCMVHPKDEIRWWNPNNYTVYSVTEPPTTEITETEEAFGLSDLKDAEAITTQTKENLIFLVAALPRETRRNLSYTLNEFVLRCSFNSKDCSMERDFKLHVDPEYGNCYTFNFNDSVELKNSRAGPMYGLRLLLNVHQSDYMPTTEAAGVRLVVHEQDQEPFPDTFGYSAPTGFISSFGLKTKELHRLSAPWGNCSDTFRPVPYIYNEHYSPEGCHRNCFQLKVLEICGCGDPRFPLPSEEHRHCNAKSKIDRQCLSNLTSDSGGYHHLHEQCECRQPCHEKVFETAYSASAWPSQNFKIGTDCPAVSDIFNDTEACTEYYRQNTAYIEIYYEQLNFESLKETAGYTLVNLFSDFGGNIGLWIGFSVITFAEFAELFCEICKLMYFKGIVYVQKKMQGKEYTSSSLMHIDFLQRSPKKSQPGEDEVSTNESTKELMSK

[5] = test system: DEGT-1d alone; assay: Two-electrode voltage clamp of oocytes expressing DEGT-1d alone; format: cell-based, C. elegans; settings: 300 µM amiloride, −85 mV, DEGT-1 alone without MEC-2
[6] = target: T4, MEC-4d(E704K) (Caenorhabditis elegans, UniProt P24612, A713T/E704K); assay: cell-based; parameters: species or system C. elegans; settings: for drug-induced change in current (Idrug) compared with absence of drug: 700 µM drug, −85 mV
T4 sequence (P24612 1-768 E704K/A713T): T1 sequence (P24612 1-768 A713T) with E704K

[7] = target: T3, UNC-8d; settings: −100 mV, ref Miller-Fleming et al., 2016, cited from earlier work
[8] = test system: uninjected oocytes; assay: Two-electrode voltage clamp of uninjected; format: cell-based, Xenopus laevis; settings: 30 µM
[9] = test system: rASIC1a; settings: allosteric effect; ref Lynagh et al., 2017; cited from earlier work

Compound: N=C(N)NC(=O)c1nc(Cl)c(N)nc1N [Amiloride, amiloride]
effect on MEC-4d current [1]: inhibited | ΔIdrug, change in current compared with uninjected oocytes [2]: −0.0067 µA | ΔIdrug, change in current compared with uninjected oocytes ([3]; 100 µM drug): 0.111 µA | ΔIdrug, change in current compared with uninjected oocytes ([3]; 300 µM drug): 0.0623 µA | effect on UNC-8d current [4]: inhibited | ΔIdrug, change in current compared with uninjected oocytes [5]: 0.0288 µA

Compound: CC(=O)Oc1ccccc1C(=O)O [Aspirin, aspirin]
EC50 [6]: 179 ± 56 µM | drug-induced change in current (Idrug) compared with absence of drug [6]: 6.53 µA | EC50 [1]: 79.9 ± 3.7 µM | voltage dependence of potentiation (EC50 vs voltage) [1]: Neither drug showed evidence of voltage dependence

Compound: N=C(N)c1ccccc1 [Benzamidine, benzamidine]
effect on UNC-8d current [4]: inhibited

Compound: NC(=NCc1ccccc1)NC(=O)c1nc(Cl)c(N)nc1N [Benzamil, benzamil]
effect on MEC-4d current [1]: inhibited | effect on UNC-8d current [4]: inhibited | IC50 ([4]; IC50, −60 mV): 14.8 ± 1.6 µM | IC50 ([4]; IC50, −100 mV): 15.1 µM | voltage dependence of block ([4]; voltages between −100 and −20 mV): not voltage-dependent | IC50 ([7]; divalent-containing solution): 47 µM | IC50 ([7]; divalent-free solution): 119 µM

Compound: O=C(O)Cc1ccccc1Nc1c(Cl)cccc1Cl [Diclofenac, diclofenac]
effect on UNC-8d current [4]: partially inhibit

Compound: CCN(c1nc(N)c(C(=O)NC(=N)N)nc1Cl)C(C)C [EIPA, 5-(N-ethyl-N-isopropyl)amiloride]
IC50 [1]: 3.06 ± 0.6 µM | voltage dependence of apparent affinity (block) [1]: insensitive to voltage | effect on MEC-4d current [1]: inhibited | effect on current in control (uninjected) oocytes [8]: no detectable effect | effect on DEGT-1d current [3]: no detectable effect | effect on UNC-8d current [4]: inhibited

Compound: O=C(O)c1ccccc1O [Salicylic acid, salicylic acid]
effect on DEGT-1d current [3]: partially inhibit

Continued, in another order:

effect on UNC-8d current [4]: partially inhibit
Compound: CC(C(=O)O)c1ccc(-c2ccccc2)c(F)c1 (stereo not shown) [Flurbiprofen, flurbiprofen]
effect on DEGT-1d current [3]: partially inhibit

drug-induced change in current (Idrug) compared with absence of drug [6]: 10.7 µA | effect on MEC-4d current [1]: seems to potentiate | effect on UNC-8d current [4]: modestly inhibits
Compound: CC(C)Cc1ccc(C(C)C(=O)O)cc1 (stereo not shown) [Ibuprofen, ibuprofen]
voltage dependence of potentiation (EC50 vs voltage) [1]: Neither drug showed evidence of voltage dependence | effect on rASIC1a [9]: inhibited | effect on current in control (uninjected) oocytes [8]: little if any effect | effect on DEGT-1d current [3]: modestly inhibits | ΔIdrug, change in current compared with uninjected oocytes ([3]; 100 µM drug): 0.19 µA | ΔIdrug, change in current compared with uninjected oocytes ([3]; 300 µM drug): 0.322 µA

effect on MEC-4d current [1]: inhibited | effect on UNC-8d current [4]: inhibited
Compound: NC(=Nc1ccccc1)NC(=O)c1nc(Cl)c(N)nc1N [Phenamil, phenamil]

difference in drug-sensitive current compared with uninjected oocytes (ΔIdrug) ([1]; 30 µM ibuprofen isomer): 4.7 µA
Compound: CC(C)Cc1ccc([C@H](C)C(=O)O)cc1 [S-Ibu, S-ibuprofen]
